# Measured values as given in patent US8518989B2, “Prodrugs of short-chain fatty acids and treatment methods” (Georgia Health Sciences University Research Institute, Inc., priority 2005, dated 2013).
# Experiments:
# [1] = tested on: MCF7 cells transfected with SMCT1 cDNA; assay: Colony formation assay in MCF7 cells transfected with SMCT1 cDNA; assay type: cell-based, human; settings: SMCT1-expressing MCF7 cells
# [2] = target: T1, human SLC5A8 (Homo sapiens, UniProt Q8N695, F251V/V193I); assay: Uptake of radiolabeled short-chain fatty acids in Xenopus oocytes injected with SLC5A8 cRNA; assay type: cell-based; settings: 1 h incubation
# T1 construct: We amplified the coding region of SLC5A8 mRNA by RT-PCR using human intestinal mRNA as the template; expressed in transfected cells; host or cells: Xenopus laevis oocytes, 50 ng capped cRNA from the pGH19 construct
# T1 sequence (Q8N695 1-610 V193I/F251V): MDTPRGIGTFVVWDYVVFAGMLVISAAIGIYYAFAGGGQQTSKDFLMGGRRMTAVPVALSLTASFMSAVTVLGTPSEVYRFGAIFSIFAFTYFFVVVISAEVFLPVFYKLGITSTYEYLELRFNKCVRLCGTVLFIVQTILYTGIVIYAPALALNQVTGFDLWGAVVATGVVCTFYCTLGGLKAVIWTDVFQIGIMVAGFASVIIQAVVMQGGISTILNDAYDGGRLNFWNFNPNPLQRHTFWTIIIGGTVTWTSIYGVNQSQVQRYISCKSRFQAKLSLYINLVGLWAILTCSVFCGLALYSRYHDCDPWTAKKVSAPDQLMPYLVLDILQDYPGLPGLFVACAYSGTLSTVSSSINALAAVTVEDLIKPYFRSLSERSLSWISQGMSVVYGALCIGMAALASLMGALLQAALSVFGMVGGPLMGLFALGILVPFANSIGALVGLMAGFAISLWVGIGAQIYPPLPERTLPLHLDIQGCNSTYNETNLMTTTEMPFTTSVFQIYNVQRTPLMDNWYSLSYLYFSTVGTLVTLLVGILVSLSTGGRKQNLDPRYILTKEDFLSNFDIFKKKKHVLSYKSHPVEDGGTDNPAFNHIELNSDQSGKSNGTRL
# Description: (§1) The amplified human SLC5A8 cDNA was expressed heterologously in Xenopus oocytes by cRNA injection. Capped cRNA from SLC5A8 cDNA was synthesized using the mMESSAGE mMACHINE kit (Ambion Inc., Austin, Tex.). Mature oocytes (stage 1V or V) from Xenopus laevis were injected with 50 ng cRNA. Uninjected oocytes served as controls. The oocytes were used for uptake and electrophysiological studies 3-6 days after cRNA injection. Uptake of radiolabeled substrates in uninjected and cRNA-injected oocytes was determined as described previously (Fei, Y. J., et al., (1995) Biochemistry 34, 8744-8751).
# (§2) Eight oocytes were used for each uptake measurement. Electrophysiological studies were performed by the two-microelectrode voltage clamp method (11. Wang, H., Fei, et al., (2000) Am. J. Physiol. 278:C1019-C1030; Inoue, K, et al. (2004) Biochem. J. 378:949-957).
# Uptake of short-chain fatty acids in uninjected oocytes and in oocytes injected with SLC5A8 cRNA was measured with 1 h incubation. Concentration of substrates (labeled plus unlabeled) varied in the range of 50-500 μM depending on the specific radioactivity of the substrates. Eight oocytes were used for each uptake measurement. Data represent means±SE.
# [3] = target: T1, human SLC5A8; assay: Two-microelectrode voltage clamp of substrate-induced currents in SLC5A8-expressing oocytes; assay type: cell-based
# Description: as §1, §2
# Oocytes were perfused with a NaCl-containing buffer (100 mM NaCl, 2 mM KCl, 1 mM MgCl2, 1 mM CaCl2, 3 mM Hepes, 3 mM Mes, and 3 mM Tris, pH 7.5), followed by the same buffer containing different fatty acids. The membrane potential was clamped at −50 mV. The differences between the steady-state currents measured in the presence and absence of substrates were considered as the substrate-induced currents. To investigate the current-membrane potential (I—V) relationship, step changes in membrane potential were applied, each for a duration of 100 ms in 20-mV increments. The kinetic parameter K0.5 (i.e. the substrate concentration necessary for the induction of half-maxima) current) was calculated by fitting the values of the substrate-induced currents to Michaelis-Menten equation. The Na^+-activation kinetics was analyzed by measuring the substrate-specific currents in the presence of increasing concentrations of Na^+. The data were analyzed by the Hill equation to determine the Hill coefficient (h; the number of Na^+ ions involved in the activation process). The kinetic parameters were determined using the computer program Sigma Plot, version 6.0 (SPSS, Inc., Chicago, Ill.). Electrophysiological measurements of substrate-induced currents were repeated at least four times with separate oocytes. The data are presented as means±S.E. of these replicates.
# The charge-to substrate transfer ratio was determined for propionate in four different oocytes as described previously (Wang, H., et al. (2000) Am. J. Physiol. 278:C1019-C1030 12. Inoue, K., Fei, Y. J., Zhuang, L., Gopal, E., Miyauchi, S., and Ganapathy, V. (2004) Biochem. J. 378:949-957). The oocytes were perfused with 25 μM propionate (unlabeled plus radiolabeled propionate), and inward currents were monitored over a period of 8-10 min. At the end of the experiment, the amount of propionate transported into the oocytes was calculated by measuring the radioactivity associated with the oocytes. The area within the curve describing the relationship between the time and inward current was integrated to calculate the charge transferred into the oocyte during incubation with propionate. The values for substrate transfer and charge transfer were used to determine the charge to substrate transfer ratio.
smiles,measurement,setting,value
CC(=O)O [acetate],Effect on cell growth / apoptosis,[1],no effect on cell growth
same,Fold increase of uptake (cRNA-injected over uninjected),[2],1.8 fold
same,"Uptake, cRNA-injected oocytes",[2]; SLC5A8 cRNA-injected oocytes,0.059 ± 0.003
same,"Uptake, uninjected oocytes",[2]; uninjected control oocytes,0.032 ± 0.001
same,Relative magnitude of substrate-induced currents,"[3]; 5 mM, -50 mV",intermediate
same,K0.5 for SLC5A8,[3]; four oocytes,2.46 ± 0.89 mM
